# Measured values: US11793849B2, “Method of Chinese herbal medicine extract used for treating multiple diseases caused by drug resistant bacteria infection” (priority 2016, dated 2023)
# Read-outs that look alike come from different tables or passages of the source.
# Columns and labels:
# ATCC27853 = assay: MIC determination, control strain; format: cell-based
# Method: Determination methods of a Minimal Inhibitory Concentration (MIC) and a Minimum Bactericidal Concentration (MBC) of a test product: the MIC and the MBC of the Pithecellobium clypearia Benth water or ethanol extract to the MDRAB are determined by a microdilution broth method.
# MDRPA = assay: Checkerboard assay (combined-use MIC, FIC); format: cell-based, Pseudomonas aeruginosa; settings: for FIC, all strains / MIC50 of the antibiotic after combined use / MIC90 of the antibiotic after combined use / reduction of the antibiotic's MIC50 vs single use / reduction of the antibiotic's MIC90 vs single use / share of strains with FIC ≤ 0.5: 20 MDRPAs
# Method: Test methods of the sensibilization effects of the test product to similar antibiotics: it is operated by referring to a checkerboard assay recommended by NCCLS.
# The checkerboard assay is performed in a 96-pore sterile culture plate.
# Calculation of a Fractional Inhibitory Concentration (FIC): FIC=S20b combined-use MIC/S20b single-use MIC+antibiotic combined-use MIC/antibiotic single-use MIC. By calculating the FIC, the combined antibacterial interaction between the EA and the antibiotic is evaluated, with synergistic effect for FIC≤0.5, additive effect for 0.5<FIC≤1, indifferent effect for 1<FIC≤2 and antagonistic effect for FIC>2. According to a sterile growth pore, the optimum concentration ratio between the EA and the antibiotic is founded out. At last, the effect of the EA to strengthen the efficacy of the antibiotic is evaluated.
# [1] = antibiotic with 10% ethanol extract
# [2] = antibiotic with 60% ethanol extract
# [3] = antibiotic with 95% ethanol extract
# [4] = antibiotic with EA (water extract)
structure (smiles),measurement,setting,value
"CC(C)(O/N=C(\C(=O)N[C@@H]1C(=O)N2C(C(=O)[O-])=C(C[n+]3ccccc3)CS[C@H]12)c1csc(N)n1)C(=O)O [CAZ, Ceftazidime]",MIC,"ATCC27853; EA=10% ethanol extract, read-out: MIC",4 µg/mL
same,MIC,"ATCC27853; EA=60% ethanol extract, read-out: MIC",4 µg/mL
same,MIC,"ATCC27853; EA=95% ethanol extract, read-out: MIC",4 µg/mL
same,MIC,"ATCC27853; EA=P. clypearia 10% ethanol extract, read-out: MIC (single use)",4 µg/mL
same,MIC,"ATCC27853; EA=P. clypearia water extract, read-out: MIC (single use)",4 µg/mL
same,MIC,"ATCC27853; EA=water extract, read-out: MIC",4 µg/mL
same,MIC,"ATCC27853; single use, EA = 60% ethanol extract, read-out: MIC",4 µg/mL
same,MIC,"ATCC27853; single use, EA = 95% ethanol extract, read-out: MIC",4 µg/mL
same,"FIC, all strains",MDRPA; [1],≤ 2
same,MIC50 of the antibiotic after combined use,MDRPA; [1],16 µg/mL
same,MIC90 of the antibiotic after combined use,MDRPA; [1],64 µg/mL
same,reduction of the antibiotic's MIC50 vs single use,MDRPA; [1],50%
same,reduction of the antibiotic's MIC90 vs single use,MDRPA; [1],75%
same,share of strains with FIC ≤ 0.5,MDRPA; [1],35%
same,"FIC, all strains",MDRPA; [2],≤ 2
same,MIC50 of the antibiotic after combined use,MDRPA; [2],8 µg/mL
same,MIC90 of the antibiotic after combined use,MDRPA; [2],64 µg/mL
same,reduction of the antibiotic's MIC50 vs single use,MDRPA; [2],75%
same,reduction of the antibiotic's MIC90 vs single use,MDRPA; [2],75%
same,share of strains with FIC ≤ 0.5,MDRPA; [2],40%
same,"FIC, all strains",MDRPA; [3],≤ 2
same,MIC50 of the antibiotic after combined use,MDRPA; [3],16 µg/mL
same,MIC90 of the antibiotic after combined use,MDRPA; [3],128 µg/mL
same,reduction of the antibiotic's MIC50 vs single use,MDRPA; [3],50%
same,reduction of the antibiotic's MIC90 vs single use,MDRPA; [3],50%
same,share of strains with FIC ≤ 0.5,MDRPA; [3],25%
same,"FIC, all strains",MDRPA; [4],≤ 2
same,MIC50 of the antibiotic after combined use,MDRPA; [4],8 µg/mL
same,MIC90 of the antibiotic after combined use,MDRPA; [4],64 µg/mL
same,reduction of the antibiotic's MIC50 vs single use,MDRPA; [4],75%
same,reduction of the antibiotic's MIC90 vs single use,MDRPA; [4],75%
same,share of strains with FIC ≤ 0.5,MDRPA; [4],45%
same,combined-use MIC,"MDRPA; strain P1, EA (P. clypearia 10% ethanol extract) combined with CAZ",16 µg/mL
same,combined-use MIC,"MDRPA; strain P1, EA (P. clypearia water extract) combined with CAZ",8 µg/mL
same,combined-use MIC,"MDRPA; strain P2, EA (P. clypearia 10% ethanol extract) combined with CAZ",16 µg/mL
same,combined-use MIC,"MDRPA; strain P2, EA (P. clypearia water extract) combined with CAZ",16 µg/mL
same,combined-use MIC,"MDRPA; strain P3, EA (P. clypearia 10% ethanol extract) combined with CAZ",2 µg/mL
same,combined-use MIC,"MDRPA; strain P3, EA (P. clypearia water extract) combined with CAZ",2 µg/mL
same,combined-use MIC,"MDRPA; strain P4, EA (P. clypearia 10% ethanol extract) combined with CAZ",64 µg/mL
same,combined-use MIC,"MDRPA; strain P4, EA (P. clypearia water extract) combined with CAZ",64 µg/mL
same,combined-use MIC,"MDRPA; strain P5, EA (P. clypearia 10% ethanol extract) combined with CAZ",32 µg/mL
same,combined-use MIC,"MDRPA; strain P5, EA (P. clypearia water extract) combined with CAZ",32 µg/mL
same,combined-use MIC,"MDRPA; strain P6, EA (P. clypearia 10% ethanol extract) combined with CAZ",256 µg/mL
same,combined-use MIC,"MDRPA; strain P6, EA (P. clypearia water extract) combined with CAZ",256 µg/mL
same,combined-use MIC,"MDRPA; strain P7, EA (P. clypearia 10% ethanol extract) combined with CAZ",32 µg/mL
same,combined-use MIC,"MDRPA; strain P7, EA (P. clypearia water extract) combined with CAZ",32 µg/mL
same,combined-use MIC,"MDRPA; strain P8, EA (P. clypearia 10% ethanol extract) combined with CAZ",64 µg/mL
same,combined-use MIC,"MDRPA; strain P8, EA (P. clypearia water extract) combined with CAZ",64 µg/mL
same,combined-use MIC,"MDRPA; strain P9, EA (P. clypearia 10% ethanol extract) combined with CAZ",4 µg/mL
same,combined-use MIC,"MDRPA; strain P9, EA (P. clypearia water extract) combined with CAZ",4 µg/mL
same,combined-use MIC,"MDRPA; strain P10, EA (P. clypearia 10% ethanol extract) combined with CAZ",2 µg/mL
same,combined-use MIC,"MDRPA; strain P10, EA (P. clypearia water extract) combined with CAZ",2 µg/mL
same,combined-use MIC,"MDRPA; strain P11, EA (P. clypearia 10% ethanol extract) combined with CAZ",1 µg/mL
same,combined-use MIC,"MDRPA; strain P11, EA (P. clypearia water extract) combined with CAZ",1 µg/mL
same,combined-use MIC,"MDRPA; strain P12, EA (P. clypearia 10% ethanol extract) combined with CAZ",2 µg/mL
same,combined-use MIC,"MDRPA; strain P12, EA (P. clypearia water extract) combined with CAZ",2 µg/mL
same,combined-use MIC,"MDRPA; strain P13, EA (P. clypearia 10% ethanol extract) combined with CAZ",4 µg/mL
same,combined-use MIC,"MDRPA; strain P13, EA (P. clypearia water extract) combined with CAZ",4 µg/mL
same,combined-use MIC,"MDRPA; strain P14, EA (P. clypearia 10% ethanol extract) combined with CAZ",8 µg/mL
same,combined-use MIC,"MDRPA; strain P14, EA (P. clypearia water extract) combined with CAZ",8 µg/mL
same,combined-use MIC,"MDRPA; strain P15, EA (P. clypearia 10% ethanol extract) combined with CAZ",128 µg/mL
same,combined-use MIC,"MDRPA; strain P15, EA (P. clypearia water extract) combined with CAZ",128 µg/mL
same,combined-use MIC,"MDRPA; strain P16, EA (P. clypearia 10% ethanol extract) combined with CAZ",8 µg/mL
same,combined-use MIC,"MDRPA; strain P16, EA (P. clypearia water extract) combined with CAZ",8 µg/mL
same,combined-use MIC,"MDRPA; strain P17, EA (P. clypearia 10% ethanol extract) combined with CAZ",8 µg/mL
same,combined-use MIC,"MDRPA; strain P17, EA (P. clypearia water extract) combined with CAZ",8 µg/mL
